Test results as given in US20190031665A1, “DERIVATIVES OF PYRROLOIMIDAZOLE OR ANALOGUES THEREOF WHICH ARE USEFUL FOR THE TREATMENT OF INTER ALIA CANCER” (EMCURE PHARMACEUTICALS LIMITED, priority 2016, published 2019).

Experiments:
[1] = molecular target: T1, human tryptophan 2,3-dioxygenase (hTDO) (Homo sapiens, UniProt P48775); experiment: In-vitro human tryptophan 2,3-dioxygenase (TDO) enzyme assay; assay type: biochemical; settings: for inhibition at 1 µM: hTDO enzyme at 1.0 μM concentration; for inhibition at 10 µM: hTDO enzyme at 10.0 μM concentration
T1 construct: His tag (N); purchased BPS Bioscience, San Diego, Calif., USA; host or cells: E. coli
Experimental: (§1) In the in-vitro human tryptophan 2,3-dioxygenase (hTDO) enzyme assay for screening inhibitor compounds, hTDO with an N-terminal histidine tag expressed and purified from E. coli (BPS Bioscience, San Diego, Calif., USA) was used. All other materials were procured from Sigma-Aldrich, St. Louis, Mo., USA.
The assay monitoring method for the conversion of L-tryptophan to N-formylkynurenine by hTDO was carried out as follows. hTDO (125 ng) was incubated in the presence of 200 μM L-tryptophan, 100 mM sodium phosphate buffer (pH 7.0), 0.01% Tween-20 and 100 μM ascorbic acid at about 37° C. for about 60 minutes. The reaction was terminated with 200 mM piperidine (PIP) and further incubated at about 65° C. for about 20 minutes to convert N-formylkynurenine (NFK) to NFK-PIP. The reaction mixture was then incubated at room temperature for about 75 minutes. The fluorescence intensity was read in a fluorescence microplate reader at an excitation wavelength of 400 nm and emission wavelength of 500 nm. Percent inhibition at each concentration of test compounds was determined by estimating the decrease in NFK-PIP. Data were analyzed using nonlinear regression to generate IC50 values using Graph Pad Prism® 6.

[2] = molecular target: T2, human indoleamine 2,3-dioxygenase 1 (hIDO1) (Homo sapiens, UniProt P14902); experiment: In-vitro human indoleamine 2,3-dioxygenase 1 (IDO1) enzyme assay; assay type: biochemical; settings: for IC50: hIDO1 enzyme; for inhibition at 1 µM: hIDO1 enzyme at 1.0 μM concentration; for inhibition at 10 µM: hIDO1 enzyme at 10.0 μM concentration
T2 construct: His tag (N); purchased BPS Bioscience, San Diego, Calif., USA; host or cells: E. coli
Experimental: as §1, with “In-vitro human indoleamine 2,3-dioxygenase 1 (IDO1) enzyme assay: In” for “In”, “indoleamine” for “tryptophan”, “1 (hIDO1)” for “(hTDO)”, “hIDO1” for “hTDO”
The assay method for monitoring the conversion of L-tryptophan to N-formylkynurenine by hlDO1 was carried out as follows. hlDO1 (50 ng) was incubated with tryptophan (80 μM) in the presence of ascorbic acid (10 mM), methylene blue (10 μM), catalase (100 μg/ml) and 0.01% Tween-20 in sodium phosphate buffer (50 mM; pH 6.5) at 37° C. for 60 min. The reaction was terminated with 200 mM piperidine (PIP) and further incubated at about 65° C. for about 20 minutes to convert N-formylkynurenine (NFK) to NFK-PIP. The reaction mixture was then incubated at room temperature for about 1 hour. The fluorescence intensity was read in a fluorescence microplate reader at an excitation wavelength of 400 nm and emission wavelength of 500 nm. Percent inhibition at each concentration of test compounds was determined by estimating the decrease in NFK-PIP. Data were analyzed using nonlinear regression to generate IC50 values using Graph Pad Prism® 6.

T2 sequence (P14902 whole entry): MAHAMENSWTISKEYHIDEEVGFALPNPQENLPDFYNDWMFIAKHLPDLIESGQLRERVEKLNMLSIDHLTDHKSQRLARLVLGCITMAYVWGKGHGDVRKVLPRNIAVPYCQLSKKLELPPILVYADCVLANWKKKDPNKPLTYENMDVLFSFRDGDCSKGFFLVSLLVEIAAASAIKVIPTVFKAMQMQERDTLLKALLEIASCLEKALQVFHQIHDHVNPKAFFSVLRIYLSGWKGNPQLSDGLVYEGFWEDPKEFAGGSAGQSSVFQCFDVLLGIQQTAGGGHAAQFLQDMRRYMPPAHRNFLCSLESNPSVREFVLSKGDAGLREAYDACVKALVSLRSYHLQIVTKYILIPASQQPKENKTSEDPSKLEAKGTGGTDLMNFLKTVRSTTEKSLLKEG
T1 sequence (P48775 whole entry): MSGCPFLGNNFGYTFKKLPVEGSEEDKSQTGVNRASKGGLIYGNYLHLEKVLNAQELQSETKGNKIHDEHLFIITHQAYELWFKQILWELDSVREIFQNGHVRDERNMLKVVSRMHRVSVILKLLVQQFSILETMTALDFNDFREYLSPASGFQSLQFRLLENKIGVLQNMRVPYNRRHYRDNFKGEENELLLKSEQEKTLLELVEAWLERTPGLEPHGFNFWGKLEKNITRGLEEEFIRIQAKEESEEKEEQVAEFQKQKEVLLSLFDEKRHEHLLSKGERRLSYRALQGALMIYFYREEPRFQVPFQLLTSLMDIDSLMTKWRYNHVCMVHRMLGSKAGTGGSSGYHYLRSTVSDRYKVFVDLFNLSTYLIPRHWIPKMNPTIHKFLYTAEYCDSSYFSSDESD

| Compound | inhibition at 1 µM [1] [%] | inhibition at 10 µM [1] [%] | IC50 [2] [nM] | inhibition at 1 µM [2] [%] | inhibition at 10 µM [2] [%] |
| --- | --- | --- | --- | --- | --- |
| CCCCCCCCC(O)CC1C(c2ccccc2)=C(C)c2cncn21 (centres unmarked) [Compound 171, 1-(7-Methyl-6-phenyl-5H-pyrrolo[1,2-c]imidazol-5-yl)-decan-2-ol] |  | ≥ 50 |  | ≥ 50 | ≥ 50 |
| CC1=C(c2ccccc2)C(CC(=O)N2CCC(O)CC2)n2cncc21 (centres unmarked) [Compound 175, 1-(4-Hydroxypiperidin-1-yl)-2-(7-methyl-6-phenyl-5H-pyrrolo[1,2-c]imidazol-5-yl)ethan-1-one] | ≤ 50 |  |  | ≤ 50 | ≤ 50 |
| O=C(CC1C2=C(CCCC2)c2cncn21)c1ccccc1 (centres unmarked) [Example 1, 1-Phenyl-2-(6,7,8,9-tetrahydro-5H-imidazo[5,1-a]isoindol-5-yl)-ethanone] |  | ≥ 50 |  |  | ≤ 50 |
| OC(CC1C2=C(CCCC2)c2cncn21)c1ccccc1 (centres unmarked) [Example 2, 1-Phenyl-2-(6,7,8,9-tetrahydro-5H-imidazo[5,1-a]isoindol-5-yl)-ethanol] |  | ≥ 50 |  |  | ≤ 50 |
| O=C(CC1C2=C(CCCC2)c2cncn21)c1cccc(Cl)c1 (centres unmarked) [Example 3] |  | ≥ 50 |  |  | ≤ 50 |
| OC(CC1C2=C(CCCC2)c2cncn21)c1cccc(Cl)c1 (centres unmarked) [Example 4] |  | ≥ 50 |  |  | ≤ 50 |
| Cc1ccc(S(=O)(=O)N2CCC3=C(C2)C(CC(=O)c2ccccc2)n2cncc23)cc1 (centres unmarked) [Example 5] |  |  |  |  | ≤ 50 |
| Cc1ccc(S(=O)(=O)N2CCC3=C(C2)C(CC(O)c2ccccc2)n2cncc23)cc1 (centres unmarked) [Example 6] |  |  |  |  | ≤ 50 |
| O=C(CC1C2=C(CCCC2)c2cncn21)c1cccc(OCc2ccccc2)c1 (centres unmarked) [Example 7] |  | ≥ 50 |  |  | ≤ 50 |
| OC(CC1C2=C(CCCC2)c2cncn21)c1cccc(OCc2ccccc2)c1 (centres unmarked) [Example 8] |  | ≥ 50 |  |  | ≤ 50 |
| O=C(CC1C2=C(CCCC2)c2cncn21)c1cc(F)ccc1F (centres unmarked) [Example 9] |  | ≥ 50 |  |  | ≤ 50 |
| OC(CC1C2=C(CCCC2)c2cncn21)c1cc(F)ccc1F (centres unmarked) [Example 10] |  | ≥ 50 |  |  | ≤ 50 |
| CC1=C(c2ccccc2)C(CC(=O)c2ccccc2)n2cncc21 (centres unmarked) [Example 11, 2-(7-Methyl-6-phenyl-5H-pyrrolo[1,2-c]imidazol-5-yl)-1-phenyl-ethanone] |  | ≥ 50 | > 500 |  | ≥ 50 |
| CC1=C(c2ccccc2)C(CC(O)c2ccccc2)n2cncc21 (centres unmarked) [Example 12, 2-(7-Methyl-6-phenyl-5H-pyrrolo[1,2-c]imidazol-5-yl)-1-phenyl-ethanol] |  | ≥ 50 | > 500 |  | ≥ 50 |
| O=C(CC1C=C(c2ccccc2)c2cncn21)c1ccccc1 (centres unmarked) [Example 13] |  |  |  |  | ≤ 50 |
| OC(CC1C=C(c2ccccc2)c2cncn21)c1ccccc1 (centres unmarked) [Example 14] |  |  |  |  | ≤ 50 |
| CC1=C(c2cccc(F)c2)C(CC(=O)c2ccccc2)n2cncc21 (centres unmarked) [Example 15, 2-[6-(3-Fluoro-phenyl)-7-methyl-5H-pyrrolo[1,2-c]imidazol-5-yl]-1-phenyl-ethanone] |  | ≥ 50 |  | ≤ 50 | ≥ 50 |
| CC1=C(c2cccc(F)c2)C(CC(O)c2ccccc2)n2cncc21 (centres unmarked) [Example 16, 2-[6-(3-Fluoro-phenyl)-7-methyl-5H-pyrrolo[1,2-c]imidazol-5-yl]-1-phenyl-ethanol] |  | ≥ 50 |  | ≤ 50 | ≥ 50 |
| CC1=C(c2ccccc2)C(CC(=O)c2cccc(Cl)c2)n2cncc21 (centres unmarked) [Example 17, 1-(3-Chloro-phenyl)-2-(7-methyl-6-phenyl-5H-pyrrolo[1,2-c]imidazol-5-yl)-ethanone] | ≥ 50 | ≥ 50 | < 500 | ≥ 50 | ≥ 50 |
| COC(=O)c1ccc(C(=O)CC2C(c3ccccc3)=C(C)c3cncn32)cc1 (centres unmarked) [Example 18, 4-[2-(7-Methyl-6-phenyl-5H-pyrrolo[1,2-c]imidazol-5-yl)-acetyl]-benzoic acid methyl ester] | ≥ 50 | ≥ 50 | < 500 | ≥ 50 | ≥ 50 |
| CC1=C(c2ccccc2)C(CC(O)c2cccc(Cl)c2)n2cncc21 (centres unmarked) [Example 19, 1-(3-Chloro-phenyl)-2-(7-methyl-6-phenyl-5H-pyrrolo[1,2-c]imidazol-5-yl)-ethanol] | ≥ 50 | ≥ 50 | < 500 | ≥ 50 | ≥ 50 |
| CC1=C(c2ccccc2)c2cncn2C1CC(=O)c1ccccc1 (centres unmarked) [Example 21] |  |  |  | ≤ 50 | ≤ 50 |

Other lines, results leading:

| inhibition at 1 µM [1] [%] | inhibition at 10 µM [1] [%] | IC50 [2] [nM] | inhibition at 1 µM [2] [%] | inhibition at 10 µM [2] [%] | Compound |
| --- | --- | --- | --- | --- | --- |
| ≥ 50 | ≥ 50 | > 500 | ≥ 50 | ≥ 50 | CC1=C(c2ccccc2)C(CC(=O)c2ccccc2)n2cncc21 (single isomer, unassigned) [Example 30] |
| ≥ 50 |  |  | ≤ 50 |  | CC1=C(c2ccccc2F)C(CC(=O)C2CCC(O)CC2)n2cncc21 (single isomer, unassigned) [Example 97] |
|  |  |  |  | ≥ 50 | CC1=C(c2ccccc2F)C(CC(=O)C2CCC(O)CC2)n2cncc21 (single isomer, unassigned) [Example 98] |
| ≤ 50 |  |  | ≤ 50 | ≥ 50 | CC1=C(c2ccccc2)C(CC(O)C2CCC(O)CC2)n2cncc21 (single isomer, unassigned) [Example 121] |
|  |  | < 500 |  |  | CC1=C(c2ccccc2)C(CC(O)C2CCC(O)CC2)n2cncc21 (single isomer, unassigned) [Example 122] |
| ≤ 50 |  |  | ≤ 50 | ≤ 50 | CC1=C(c2ccccc2)C(CC(O)C2CCN(C(=O)c3ccccn3)CC2)n2cncc21 (single isomer, unassigned) [Example 160] |
|  |  | > 500 |  |  | CC1=C(c2ccccc2)C(CC(O)C2CCN(C(=O)c3ccccn3)CC2)n2cncc21 (single isomer, unassigned) [Example 161] |
| ≥ 50 |  | < 500 | ≥ 50 | ≥ 50 | CC1=C(c2ccccc2)C(CC(=O)c2ccc(-c3ccccc3)cc2)n2cncc21 (single isomer, unassigned; isomer-i) [Example 42, 1-([1,1′-biphenyl]-4-yl)-2-(7-methyl-6-phenyl-5H-pyrrolo[1,2-c]imidazol-5-yl)ethan-1-one, Isomer-I] |
| ≥ 50 | ≥ 50 | < 500 | ≥ 50 | ≥ 50 | COC(=O)c1ccc(C(=O)CC2C(c3ccccc3)=C(C)c3cncn32)cc1 (single isomer, unassigned; isomer-i) [Example 71, 4-[2-(7-Methyl-6-phenyl-5H-pyrrolo[1,2-c]imidazol-5-yl)-acetyl]-benzoic acid methyl ester, Isomer-I] |
| ≥ 50 |  | < 500 | ≥ 50 | ≥ 50 | CC1=C(c2ccccc2)C(C[C@H](O)C2CCC(C(=O)OC(C)(C)C)CC2)n2cncc21 (stereo in doubt) [Example 185] |
| ≥ 50 |  | < 500 | ≥ 50 | ≥ 50 | CCOC(=O)C1CCC([C@@H](O)CC2C(c3ccccc3)=C(C)c3cncn32)CC1 (stereo in doubt) [Example 189] |
|  |  | > 500 |  | ≥ 50 | CC1=C(c2ccccc2)C(CC(O)C2CCC(O)CC2)n2cncc21 (centres unmarked) [Example 111] |
|  |  |  | ≤ 50 | ≤ 50 | CCCNC(=O)CC1C(c2ccccc2)=C(C)c2cncn21 (centres unmarked) [Example 172, 2-(7-Methyl-6-phenyl-5H-pyrrolo[1,2-c]imidazol-5-yl)-N-propylacetamide] |
